Test system: P. falciparum stage V gametocytes
Experiment: Gametocytocidal ATP bioluminescence assay (single point 5 μM and 1 μM, dose-response)
Type: cell-based, Plasmodium falciparum
Conditions: P. falciparum gametocytes, 5 μM single concentration, 48 h, decrease of ATP level (S1 Table)
Protocol: Purified stage IV-V gametocytes were obtained as previously described [10]. Single point ATP bioluminescence assay and dose–response of positive hits was determined in accordance with the previously published protocol [10].

Point of comparison: CCc1ccc(NC(=O)c2cccc(CN3CCCN(CC4CCCCC4)CC3)c2)cc1 [TCMDC-135988], “% Inhibition” value -39%. Against it:
- OC(CN1CCN(c2cccc(Cl)c2)CC1)C(c1ccccc1)c1ccccc1 (stereo not shown) [TCMDC-123456] — higher, 0.238%
- C1=C(c2c[nH]c3ccccc23)CCN(Cc2ccccc2)C1 [TCMDC-123457] — lower, -71%
- N=C(N)c1ccc(-c2cc3ccc(C(=N)N)cc3[nH]2)cc1 [TCMDC-123458] — higher, 53%
- Clc1ccc(-c2nc3ccc(-c4ccc5nc(-c6ccc(Cl)cc6)[nH]c5c4)cc3[nH]2)cc1 [TCMDC-123460] — higher, 1.65%
- Clc1ccc2c(NCCc3ccccn3)ccnc2c1 [TCMDC-123461] — higher, 8%
- N#Cc1c(N2CCN(c3ccc(F)cc3)CC2)nc(N)c2c(N)nc3c(c12)CC(=O)N3C1CC1 [TCMDC-124490] — higher, 44%
- CN(CC(=O)Nc1ccc(F)c(F)c1F)c1ncnc2sc(-c3ccccc3)cc12 [TCMDC-124491] — higher, 23%
- Cc1ccnc2nc(C(=O)Nc3cc(C(F)(F)F)ccc3N3CCCCC3)nn12 [TCMDC-124492] — higher, -24%
- CC(=O)c1c(C)[nH]c(C(=O)Nc2ccc(-c3nc4ccc(C)cc4s3)cc2)c1C [TCMDC-124493] — higher, 55%
- CC1CCN(C(=O)C(Cc2c[nH]c3ccccc23)NS(=O)(=O)c2ccc(Cl)cc2)CC1 (stereo not shown) [TCMDC-124494] — higher, 54%
- CC(CN1CCN(CC(c2ccc(F)cc2)N2CCN(C)CC2)CC1)C(=O)c1ccc(O)cc1.O=C(O)/C=C\C(=O)O (stereo not shown) [TCMDC-125496] — higher, 30%
- COc1ccc(Cl)cc1NC(=O)Nc1cc(C)nc2ccccc12 [TCMDC-125497] — lower, -50%
- O=C1C(c2ccccc2)=C(Nc2cccc(OC(F)(F)C(F)F)c2)c2ccccc21 [TCMDC-125498] — higher, 66%
- Cc1ccc(Oc2ncccc2C(=O)Nc2cccc3cccnc23)c(C)c1 [TCMDC-125499] — higher, -13%
- COc1ccc(NC2=C(c3ccccc3)C(=O)c3ccccc32)cn1 [TCMDC-125501] — higher, 37%
- COc1cc2nc(C)nc(Nc3ccc(Cc4ccccc4)cc3)c2cc1OC [TCMDC-131941] — higher, 1.46%
- Nc1nc(N)c2c(ccc3ccccc32)n1 [TCMDC-131942] — higher, 19%
- Nc1nc(N)c2c(Sc3ccccc3)cccc2n1 [TCMDC-131943] — higher, 9%
- COc1cc2ncnc(Nc3ccc(OCc4ccccc4)c(I)c3)c2cc1OC [TCMDC-131944] — higher, -25%
- Ic1cc(Nc2ncnc3ccsc23)ccc1OCc1ccccc1 [TCMDC-131945] — higher, 8%
- Cc1cccc(CN2CCC(Oc3ccc(NC(=O)c4cccs4)cc3Cl)CC2)n1 [TCMDC-133964] — higher, 24%
- Cc1cc(NC(=O)c2ccco2)ccc1OC1CCN(Cc2ccccc2)CC1 [TCMDC-133965] — higher, 12%
- O=C(Nc1ccc(OC2CCN(Cc3ccccc3)CC2)c(Cl)c1)c1ccco1 [TCMDC-133966] — higher, 63%
- O=C(Nc1ccc(OC2CCN(Cc3ccccc3)CC2)c(Cl)c1)c1ccc(F)cc1 [TCMDC-133967] — higher, 19%
- Cc1cc(NC(=O)c2cccs2)ccc1OC1CCN(Cc2ccccc2)C1 (stereo not shown) [TCMDC-133968] — higher, -2.76%
- CN(c1cc(NC(=O)c2cccs2)ccn1)C1CCN(Cc2cccc(C#N)c2)CC1 [TCMDC-134970] — higher, 40%
- CC(=O)Nc1ccc(CN2CCC(N(C)c3cc(NC(=O)c4cccs4)ccn3)CC2)cc1 [TCMDC-134971] — higher, -7%
- CN(Cc1cccc(C#N)c1)C1CCN(c2cc(NC(=O)c3cccc(F)c3)ccn2)CC1 [TCMDC-134972] — higher, 21%
- Cc1cccc(C(=O)Nc2ccnc(N3CCC(N(C)Cc4cccc(C#N)c4)CC3)c2)c1 [TCMDC-134973] — higher, -4.57%
- CN(Cc1cccc(C#N)c1)C1CCN(c2cc(NC(=O)c3ccc(F)cc3)ccn2)CC1 [TCMDC-134974] — higher, -6%
- Cc1cccc(CN2CCCN(Cc3cccc(C(=O)Nc4ccc(C(C)(C)C)cc4)c3)CC2)c1 [TCMDC-135984] — lower, -91%
- CC(C)(C)c1ccc(NC(=O)c2cccc(CN3CCCN(Cc4ccc(F)cc4)CC3)c2)cc1 [TCMDC-135985] — higher, -30%
- COc1ccc(CN2CCCN(Cc3cccc(C(=O)Nc4ccc(C(C)(C)C)cc4)c3)CC2)cc1 [TCMDC-135986] — higher, 5.59%
- CCOc1ccc(NC(=O)c2cccc(CN3CCCN(Cc4cccc(O)c4)CC3)c2)cc1 [TCMDC-135987] — higher, -5%
- Cc1cccc2nc(-c3cccc(-c4cccc(NC(=O)Cc5ccc[n+]([O-])c5)c4)c3)[nH]c12 [TCMDC-136992] — higher, 25%
- Cc1cccc2nc(-c3cccc(-c4ccc(NC(=O)Cc5ccc[n+]([O-])c5)cc4)c3)[nH]c12 [TCMDC-136993] — higher, -16%
- Cc1nc(C)c(CC(=O)Nc2cccc(-c3cccc(-c4nc5ccc(C(F)(F)F)cc5[nH]4)c3)c2)s1 [TCMDC-136995] — higher, 4.51%
- Cc1nc(C)c(CC(=O)Nc2ccc(-c3cccc(-c4nc5ccc(C(F)(F)F)cc5[nH]4)c3)cc2)s1 [TCMDC-136996] — lower, -50%
- COc1cc(Cc2cnc(N)nc2N)c2c(c1OC)OC(C)(C)C=C2 [TCMDC-138038] — higher, -2.79%
- C=CCc1cc(Cc2cnc(N)nc2N)cc(CCC)c1OC [TCMDC-138039] — higher, 23%
- COc1cc(Cc2cnc(N)nc2N)cc(OCCCC#N)c1OC [TCMDC-138040] — higher, -4.21%
- COC(=O)CCCCOc1cc(Cc2cnc(N)nc2N)cc(OC)c1OC [TCMDC-138041] — higher, 2%
- C=CCOc1cc(Cc2cnc(N)nc2N)cc(OC)c1OC [TCMDC-138042] — higher, -4%
- CNc1c2c(nc3ccc(NC(=O)CCCCCCc4ccccc4)cc13)CCCC2 [TCMDC-139066] — higher, 79%
- CO/C(=C\C=C\c1cc2cc(Cl)c(Cl)cc2[nH]1)C(=O)NC1CC2CCCC(C1)N2C (stereo not shown) [TCMDC-139067] — higher, 19%
- O=C(Nc1ccc(CN2CCC(c3c[nH]c4ccc(O)cc34)CC2)cc1)c1ccc(-c2ccccc2)cc1 [TCMDC-139068] — lower, -139%
- COc1ccc2[nH]cc(C3CCN(Cc4ccc(NC(=O)c5ccc(-c6ccccc6)cc5)cc4)CC3)c2c1 [TCMDC-139069] — higher, 8%
- Nc1ccnc2ccc(NC(=O)CCCCCc3ccccc3)cc12 [TCMDC-139070] — higher, 2%
- O=C(/C=C/c1ccc(Cl)c(Cl)c1)N1CCC(CCN2CCC(c3c[nH]c4ccncc34)CC2)CC1 [TCMDC-140075] — higher, 91%
- Cc1cc(NC(=O)Nc2ccc3nc(C)oc3c2)c2cc(Cl)ccc2n1 [TCMDC-140076] — higher, 38%
- O=C(NCCCN1CCN(c2cccc(Cl)c2)CC1)c1ccc(-c2nc3cc(Cl)c(Cl)cc3[nH]2)cc1 [TCMDC-140077] — higher, 1.64%
- COc1cc(C(=O)NC2CCN(Cc3ccccc3)CC2)ccc1-c1nc2cc(Cl)c(Cl)cc2[nH]1 [TCMDC-140078] — lower, -56%
- COc1cc(C(=O)NCCCN2CCN(c3cc(Cl)ccc3OC)CC2)ccc1-c1nc2cc(Cl)c(Cl)cc2[nH]1 [TCMDC-140079] — higher, 4.42%
- COc1ccc2nccc([C@@H](O)CN3CCC(NCc4ccc5scnc5c4)CC3)c2c1 [TCMDC-141081] — higher, 10%
- CNC(=O)c1cc(NCCCNCc2ccc(Cl)c(C(F)(F)F)c2)nc2ccccc12 [TCMDC-141082] — higher, 73%
- COc1ccc2nccc([C@@H](O)CN3CCC(NCc4nc5c(OCc6ccccc6)cccc5[nH]4)CC3)c2c1 [TCMDC-141083] — higher, 34%
- CC(C)NC(C)(C)CN(Cc1ccc(-c2ccc(C(F)(F)F)cc2)cc1)C(=O)Cn1c(CCc2cccc(F)c2F)nc(=O)c2ccccc21 [TCMDC-141084] — higher, 72%
- CCCCCCNC(=O)C1Cc2c([nH]c3ccccc23)C2(CCN(CCc3ccccc3)CC2)N1 (stereo not shown) [TCMDC-141085] — lower, -58%

Same assay, conditions: P. falciparum gametocytes; average; read-out: IC50 Pf Gametocytes average, IC50 (µM) average

For CCN(CC)/C(=N/C(=N)NCc1ccc(Cl)cc1Cl)NCCCCCCN/C(=N\C(=N)NCc1ccc(Cl)cc1Cl)N(CC)CC [TCMDC-131819], the IC50 was 0.3 µM.

Same assay, conditions: Plasmodium falciparum; P. falciparum gametocytes, 5 μM single concentration, 48 h, decrease of ATP level (S1 Table)

Point of comparison: Cc1cccc2nc(-c3cccc(-c4cccc(CNCc5cnn(-c6ccccc6)n5)c4)c3)[nH]c12 [TCMDC-132963], inhibition at 5 µM 8%. Against it:
- COC(=O)c1cccc(CNCc2cccc(-c3cccc(-c4nc5cc(F)ccc5[nH]4)c3)c2)c1 [TCMDC-132960] — lower, 6%
- COC(=O)c1cccc(CNCc2cccc(-c3cccc(-c4nc5ccccc5[nH]4)c3)c2)c1 [TCMDC-132961] — higher, 33%
- c1ccc(-n2ncc(CNCc3ccc(-c4ccc(-c5nc6ccccc6[nH]5)s4)cc3)n2)cc1 [TCMDC-132962] — lower, 1%
- FC(F)(F)c1ccc2[nH]c(-c3cccc(-c4ccc(CNCc5cnn(-c6ccccc6)n5)cc4)c3)nc2c1 [TCMDC-132964] — higher, 25%
- Cc1nc(C)c(CC(=O)Nc2ccc(-c3ccc(-c4nc5cc(C(F)(F)F)ccc5[nH]4)s3)cc2)s1 [TCMDC-136994] — lower, 7%

Same assay, conditions: Plasmodium falciparum; gametocytes, primary screen at 5 μM (S9 Table, CSA analogs)

Point of comparison: CNCCNCc1ccc(-c2ccc(-c3nc4ccccc4[nH]3)s2)cc1 [TCMDC-132824], inhibition at 5 µM 82.1%. Against it:
- c1ccc2[nH]c(-c3ccc(-c4ccc(CNC5CC5)cc4)s3)nc2c1 [TCMDC-132675] — lower, -17.6%
- CN(C)CCNCc1ccc(-c2ccc(-c3nc4ccccc4[nH]3)s2)cc1 [TCMDC-132683] — lower, 58.1%
- CC(C)CN(C)Cc1ccc(-c2ccc(-c3nc4ccccc4[nH]3)s2)cc1 [TCMDC-136786] — lower, -17.4%

Same assay, conditions: gametocytes, primary screen at 5 μM (S10 Table, MCSI analogs)

Point of comparison: Cc1cccc2nc(-c3ccc(-c4cccc(CNCc5ccc(CN)cc5)c4)s3)[nH]c12.O=C(O)C(F)(F)F [TCMDC-132812], “%_Inh” value 115.306%. Against it:
- Cc1cccc2nc(-c3ccc(-c4ccc(CN5CCN(C6CCN(C)CC6)CC5)cc4)s3)[nH]c12 [TCMDC-133866] — lower, 106.989%

Test system: P. falciparum asexual stages
Experiment: not given
Conditions: asexual stages; TCAMS data; read-out: IC50 asexual; cited from earlier work

In the case of CCN(CC)/C(=N/C(=N)NCc1ccc(Cl)cc1Cl)NCCCCCCN/C(=N\C(=N)NCc1ccc(Cl)cc1Cl)N(CC)CC [TCMDC-131819], the IC50 is given as 0.218 µM.
